From PMC6286779, “HLA-A2-Restricted Epitopes Identified from MTA1 Could Elicit Antigen-Specific Cytotoxic T Lymphocyte Response” (Journal of Immunology Research, 2018)

Assays:
[1] = tested on: SW620 cells (HLA-A2+, MTA1+); assay: LDH cytotoxicity assay, CTLs induced in HLA-A2.1/Kb transgenic mice; assay type: in vivo, human; conditions: HLA-A2.1/Kb transgenic mice, 100 μg peptide + 140 μg T helper epitope in IFA s.c. days 0, 5, 10; splenocytes restimulated 6 days; E/T 50 : 1; n = 5
Procedure: In vivo induction of peptide-specific CTLs was performed as previously described. Briefly, peptide (100 μg) and the IA^b-restricted HBV-core128 T helper epitope (140 μg) emulsified in incomplete Freund's adjuvant (IFA) were used to subcutaneously immunize at the base of the tail of HLA-A2.1/K^b transgenic mice three times on days 0, 5, and 10. On day 11, all mice were sacrificed through cervical dislocation. Spleen lymphocytes were isolated and restimulated once with 10 μg/ml peptide and 10 U/ml mIL-2 in vitro for an additional 6 days. LDH and IFN-γ ELISPOT assays were performed on day 6 after in vitro stimulation. […]
To test the effects of protein, each HLA-A2.1/K^b transgenic mouse was injected subcutaneously at the base of the tail with 100 μg MTA1(1–283) or the same volume of PBS emulsified in IFA twice on days 0 and 7. On day 14, spleen lymphocytes were harvested and stimulated by peptide pool (10 μg/ml) in vitro for another 6 days. LDH, IFN-γ ELISPOT, and IFN-γ intracellular cytokine staining assays were performed on day 6 after the in vitro stimulation. E/T ratios used in the LDH assay were 12.5 : 1, 25 : 1, and 50 : 1.
(§1) Cytotoxic activity of induced T cells was tested based on the quantitation of LDH release using the nonradioactive cytotoxicity assay kit (Promega, USA) at the gradient E/T ratio [29, 31]. Target cells which expressed different levels of MTA1 or peptide-pulsed T2 cells were used as target cells. The anti-human HLA-A2 antibody (BB7.2) was added 30 min before adding effector cells to determine the HLA restriction. Target cells (5 × 10^3/well) were cocultured with the effector cells at 37°C for 4 h. The percentage of specific lysis of the target cells was determined using the equation: percentage of specific lysis = [(experimental release − effector spontaneous release − target spontaneous release)/(target maximum release − target spontaneous release)] × 100.

[2] = tested on: PBMCs from HLA-A*02+ healthy donors; assay: IFN-γ ELISPOT of CTLs induced in vitro; assay type: cell-based, human; conditions: PBMCs of six donors stimulated with peptide 10 μg/ml three times, day 21; stimulators peptide-pulsed T2 cells (50 μg/ml); 1 × 10^5 effectors; mean, n = 6
Procedure: (§2) CTL induction in vitro was conducted according to the procedures previously described. Briefly, PBMCs from eight HLA-A^∗02^+ healthy donors were isolated using Ficoll-Paque density gradient centrifugation and resuspended in RPMI 1640 medium supplemented with 10% FBS. Then, PBMCs were stimulated three times (once a week) with the indicated peptides (10 μg/ml) or protein MTA1(1–283) (at final concentrations of 0, 1, 10, 30, and 50 μg/ml) for 21 days. Human recombinant cytokine interleukin-2 (IL-2) (50 U/ml) was added on day 3 and 1 day after each stimulation. The cytotoxic assay (lactate dehydrogenase (LDH) assay) and IFN-γ secretion enzyme-linked immunospot (ELISPOT) assay were performed on day 21.
The ELISPOT assay was performed using a commercial kit (Dakewe, China) according to the procedures previously described. Briefly, T2 cells incubated with/without candidate peptide (50 μg/ml) were used as the stimulating cells, effector cells (1 × 10^5) and stimulator cells (peptide-pulsed T2 cells or T2 cells only, 1 × 10^5) were seeded into the 96-well plate precoated with an anti-human (or anti-mouse) IFN-γ antibody. After incubation at 37°C for 18 h, cells were removed, and plates were processed for analysis as instructed. The spot number was determined automatically using a computer-assisted spot analyzer (Dakewe, China).

[3] = biological target: T1, peptide/HLA-A*0201 complexes (Homo sapiens, UniProt P04439, D140Y/D185E/D98H/E176V/E277Q/G131W/G231S/I119V/I121R/I166T/I218V/L300P/L318F/N151K/N90K/P208A/P217A/Q86G/Q94H/R138H/R169H/T345S); assay: T2 stabilization (stability) assay; assay type: binding; conditions: T2 cells, peptide 50 μg/ml, 18 h, then brefeldin A 10 μg/ml 1 h; read at 0, 2, 4, 6 h, 37°C; flow cytometry
T1 construct: endogenous in cells; host or cells: T2 lymphoblastic cell line (TAP-deficient)
Procedure: For the stability assay, each of the selected peptides (50 μg/ml) was incubated with T2 cells (1 × 10^6 cells/ml) for 18 h in serum-free RPMI 1640 medium supplemented with 3 μg/ml β2-M at 37°C. Thereafter, cells were washed twice and incubated with brefeldin A (10 μg/ml, eBiosciences, USA) for 1 h. Subsequently, the cells were washed and incubated for 0, 2, 4, and 6 h at 37°C. Cells were washed twice, stained with BB7.2 for 0.5 h at 4°C. Finally, cells were collected, washed, and analyzed by flow cytometry. Dissociation complex 50 (DC50) was defined as time (t) required for the loss of 50% of the HLA-A^∗0201/peptide complexes stabilized at 0 h.

[4] = tested on: SW620 incubated with an anti-human HLA-A2 antibody; assay: LDH cytotoxicity assay, CTLs induced in vitro, HLA-A2 blocked; assay type: cell-based; conditions: peptide-induced CTLs, BB7.2 added 30 min before effectors
Procedure: as §2, §1

Sequence | lysis rate of SW620 cells, CTLs induced in vivo [1] [%] | IFN-γ ELISPOT mean spot intensities [2] | DC50: time required for the loss of 50% of the HLA-A*0201/peptide complexes stabilized at 0 h [3] [h] | lysis of SW620 cells incubated with an HLA-A2 blocking antibody [4]
YLIRRIEEL [Peptide P22] | 37.29 | 566 | >2 | did not lyse
TLLNETESL [Peptide P129] | 51.81 | 411 | >6 | did not lyse
